The source made the active and inactive calls. The rule behind the calls is not given here.

For data set [1], the target named is T1, Glutamate carboxypeptidase 2 (Homo sapiens, UniProt Q04609). Description: Inhibition of PSMA (unknown origin) incubated for 15 mins using PABGgG substrate by HPLC method.
Target sequence in this assay (Q04609 whole entry): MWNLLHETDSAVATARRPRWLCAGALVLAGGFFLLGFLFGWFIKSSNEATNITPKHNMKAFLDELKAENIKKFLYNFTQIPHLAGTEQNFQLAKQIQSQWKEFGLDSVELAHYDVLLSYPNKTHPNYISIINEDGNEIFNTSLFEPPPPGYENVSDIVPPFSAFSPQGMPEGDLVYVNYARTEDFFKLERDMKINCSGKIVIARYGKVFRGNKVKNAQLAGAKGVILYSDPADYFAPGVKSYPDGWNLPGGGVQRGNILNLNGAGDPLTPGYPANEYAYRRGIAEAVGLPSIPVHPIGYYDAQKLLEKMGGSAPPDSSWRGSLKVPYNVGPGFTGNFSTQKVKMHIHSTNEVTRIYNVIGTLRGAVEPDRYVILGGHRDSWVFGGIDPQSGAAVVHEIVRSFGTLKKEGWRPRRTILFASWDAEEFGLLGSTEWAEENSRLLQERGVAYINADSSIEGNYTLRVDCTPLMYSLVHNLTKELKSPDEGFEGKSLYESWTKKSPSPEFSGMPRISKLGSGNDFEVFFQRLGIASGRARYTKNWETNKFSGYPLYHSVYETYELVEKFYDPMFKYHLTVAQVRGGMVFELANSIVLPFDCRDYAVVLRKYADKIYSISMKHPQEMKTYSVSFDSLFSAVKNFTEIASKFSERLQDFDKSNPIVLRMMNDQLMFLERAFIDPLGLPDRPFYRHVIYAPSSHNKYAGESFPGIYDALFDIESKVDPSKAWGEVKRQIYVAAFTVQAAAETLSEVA
The target in data set [2] is T1, Glutamate carboxypeptidase 2. The following applies: 0.1 uM.
Target sequence in this assay (Q04609 whole entry, looked up): as the sequence (Q04609 whole entry) above
Description: Slow reversible inhibition of PSMA (unknown origin) at 0.1 uM pre-incubated for 10 mins before PABGgG substrate addition by HPLC method
Data set [3] can be described thus: Half life in pH 4.5 buffer at 70 degC by [31P] NMR spectrometry. The data set is classed as physicochemical.
A short description of data set [4]: Half life in pH 4.5 buffer at 50 degC by [31P] NMR spectrometry. The data set is classed as physicochemical.
Data set [5] can be described thus: Drug uptake in tumor of human CWR22Rv1 cells xenografted athymic NCr-nu/nu mouse at 200 uCi, iv after 2 hrs by microPET/CT imaging method. Format: ADME, organism-based, CWR22R. Conditions: in vivo.
Another data set deals with Kidney. Description: Drug uptake in kidney of human CWR22Rv1 cells xenografted athymic NCr-nu/nu mouse at 200 uCi, iv after 2 hrs by microPET/CT imaging method. The following applies: in vivo. The data set is classed as ADME, organism-based. (In general: A xenograft is tissue or cells of one species grown in another, often human tumour cells in immunodeficient mice.)
A further data set concerns Mus musculus. Description: Drug uptake in other organs of human CWR22Rv1 cells xenografted athymic NCr-nu/nu mouse at 200 uCi, iv after 2 hrs by microPET/CT imaging method. Conditions: in vivo. The data set is classed as ADME, organism-based.

As to `O=C(O)CC[C@H](NP(=O)(O)OCCC[C@H](NC(=O)CC[C@H](NC(=O)c1ccc(F)cc1)C(=O)O)C(=O)O)C(=O)O`, the IC50 in data set [1] was determined as 1.3 nM.

Regarding `O=C(O)CC[C@H](NP(=O)(O)O[C@H]1C[C@H](C(=O)O)N(C(=O)CC[C@H](NC(=O)c2ccc(F)cc2)C(=O)O)C1)C(=O)O`, half-maximal inhibition in data set [1] (IC50) required 3 nM. Besides, in data set [2], the inhibition result was “Active”.

Regarding `O=C(O)CC[C@H](NP(=O)(O)O[C@H]1C[C@H](C(=O)O)N(C(=O)CC[C@H](NC(=O)CCCCCNC(=O)c2ccc(F)cc2)C(=O)O)C1)C(=O)O`, the IC50 in data set [1] came to 11 nM. Moreover, the inhibition entry in data set [2] was “Active”.

In the case of `O=C(O)CC[C@H](NP(=O)(O)O[C@@H]1C[C@@H](C(=O)O)N(C(=O)CC[C@H](NC(=O)c2ccc(F)cc2)C(=O)O)C1)C(=O)O`, in data set [1], 2.6 nM corresponded to half-maximal inhibition (IC50). The inhibition result in data set [2] is “Active”.

Regarding `N[C@@H](CCC(=O)N1C[C@@H](OP(=O)(O)N[C@@H](CCC(=O)O)C(=O)O)C[C@@H]1C(=O)O)C(=O)O`, in data set [1], half-maximal inhibition (IC50) required 357 nM. The inhibition entry in data set [2] was “Active”.

For the molecule `O=C(O)CC[C@H](NP(=O)(O)O[C@@H]1C[C@@H](C(=O)O)N(C(=O)CC[C@H](NC(=O)CCCCCNC(=O)c2ccc(F)cc2)C(=O)O)C1)C(=O)O`, the results for the half-life in data set [3] and in data set [4] were 32 min and 105 min, respectively. For the same molecule, in data set [1], the IC50 came out at 1.3 nM. Further, the inhibition result in data set [2] is “Active”.

`O=C(O)CC[C@H](NP(=O)(O)O[C@@H]1C[C@@H](C(=O)O)N(C(=O)CC[C@H](NC(=O)CCCCCNC(=O)c2ccc(F)cc2)C(=O)O)C1)C(=O)O.O=C(O)CC[C@H](NP(=O)(O)O[C@@H]1C[C@@H](C(=O)O)N(C(=O)CC[C@H](NC(=O)CCCCCNC(=O)c2ccc([18F])cc2)C(=O)O)C1)C(=O)O`: the Drug uptake entry (in data set [5]; with Kidney; in the data set with Mus musculus) was “Active” throughout.

In data set [1], `NCCCCCC(=O)N[C@@H](CCC(=O)N1C[C@H](OP(=O)(O)N[C@@H](CCC(=O)O)C(=O)O)C[C@H]1C(=O)O)C(=O)O` returned an IC50 of 79 nM. Moreover, the inhibition result in data set [2] was “Active”.

`N[C@@H](CCC(=O)N1C[C@H](OP(=O)(O)N[C@@H](CCC(=O)O)C(=O)O)C[C@H]1C(=O)O)C(=O)O` came in with a half-inhibitory concentration (IC50) in data set [1] of 60 nM. In data set [2], the inhibition entry was “Active”.

Consider `NCCCCCC(=O)N[C@@H](CCC(=O)N[C@@H](CCCOP(=O)(O)N[C@@H](CCC(=O)O)C(=O)O)C(=O)O)C(=O)O`, for which, in data set [1], half-maximal inhibition (IC50) was put at 19 nM.

With `NCCCCCC(=O)N[C@@H](CCC(=O)N1C[C@@H](OP(=O)(O)N[C@@H](CCC(=O)O)C(=O)O)C[C@@H]1C(=O)O)C(=O)O`, the IC50 in data set [1] is 112 nM. Besides, the inhibition result in data set [2] was “Active”.

`O=C(O)CC[C@H](NP(=O)(O)OCCC[C@H](NC(=O)CC[C@H](NC(=O)CCCCCNC(=O)c1ccc(F)cc1)C(=O)O)C(=O)O)C(=O)O` [CTT-1057]: the half-life was found to be 12 min in data set [3] and 75 min in data set [4]. The same molecule returned an IC50 in data set [1] of 0.4 nM.

Turning to `N[C@@H](CCC(=O)N[C@@H](CCCOP(=O)(O)N[C@@H](CCC(=O)O)C(=O)O)C(=O)O)C(=O)O`, it took 27 nM to reach half-maximal inhibition in data set [1] (IC50).

As a reminder, the IC50 is the concentration needed to halve the response being measured. A lower IC50 goes with higher potency. The half-life is how long it takes for the measured level to halve. Lower therefore signals fast loss.

These data come from ChEMBL document CHEMBL3425431, “Synthesis and evaluation of constrained phosphoramidate inhibitors of prostate-specific membrane antigen” (Bioorg Med Chem Lett, 2015).
